Reference: PubChem BioAssay AID256 (DTP/NCI, 2004)
Toxic doses and inconclusive results are not listed. How the source made its calls: active means survival T/C of 150% or more; inactive means T/C below 125% in these data.

Tested on: CD2F1 mice, L1210 leukemia ip, survival T/C
Assay: NCI In Vivo Anticancer Drug Screen. Data for tumor model L1210 Leukemia (intraperitoneal) in CD2F1 (CDF1) mice
Settings: higher = longer survival
Method in brief: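 Transplantable tumor in mice; compound-treated vs vehicle-treated groups. Read-out = treated/control ratio of the measured endpoint.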

[1] = endpoint: mean survival time, dose: 100.0 mg/kg/injection, schedule: Q01DX001 (ip), vehicle: saline
[2] = endpoint: mean survival time, dose: 200.0 mg/kg/injection, schedule: Q01DX001 (ip), vehicle: saline
[3] = endpoint: mean survival time, dose: 100.0 mg/kg/injection, schedule: Q04DX002 (ip), vehicle: saline with Tween-80
[4] = endpoint: mean survival time, dose: 200.0 mg/kg/injection, schedule: Q04DX002 (ip), vehicle: saline with Tween-80
[5] = endpoint: mean survival time, dose: 400.0 mg/kg/injection, schedule: Q04DX002 (ip), vehicle: saline with Tween-80
[6] = endpoint: mean survival time, dose: 400.0 mg/kg/injection, schedule: Q01DX001 (ip), vehicle: saline
[7] = endpoint: mean survival time, dose: 100.0 mg/kg/injection, schedule: Q04DX003 (ip), vehicle: saline
[8] = endpoint: mean survival time, dose: 200.0 mg/kg/injection, schedule: Q04DX003 (ip), vehicle: saline
[9] = endpoint: mean survival time, dose: 100.0 mg/kg/injection, schedule: Q01DX009 (ip), vehicle: saline with Tween-80
[10] = endpoint: mean survival time, dose: 100.0 mg/kg/injection, schedule: Q04DX003 (ip), vehicle: saline with Tween-80
[11] = endpoint: mean survival time, dose: 200.0 mg/kg/injection, schedule: Q01DX009 (ip), vehicle: saline with Tween-80
[12] = endpoint: mean survival time, dose: 200.0 mg/kg/injection, schedule: Q04DX003 (ip), vehicle: saline with Tween-80
[13] = endpoint: mean survival time, dose: 400.0 mg/kg/injection, schedule: Q04DX003 (ip), vehicle: saline with Tween-80
[14] = endpoint: mean survival time, dose: 400.0 mg/kg/injection, schedule: Q04DX003 (ip), vehicle: saline
[15] = endpoint: mean survival time, dose: 400.0 mg/kg/injection, schedule: Q01DX009 (ip), vehicle: saline with Tween-80
[16] = endpoint: mean survival time, dose: 100.0 mg/kg/injection, schedule: Q01DX001 (ip), vehicle: Klucel (hydroxypropylcellulose) (HPC)
[17] = endpoint: mean survival time, dose: 200.0 mg/kg/injection, schedule: Q01DX001 (ip), vehicle: Klucel (hydroxypropylcellulose) (HPC)
[18] = endpoint: mean survival time, dose: 400.0 mg/kg/injection, schedule: Q01DX001 (ip), vehicle: Klucel (hydroxypropylcellulose) (HPC)

Measured: T/C

CCOC(=O)c1cccc(N(CCOS(C)(=O)=O)CCOS(C)(=O)=O)c1
inactive: endpoint: mean survival time, dose: 2.0 mg/kg/injection, schedule: Q01DX010 (ip), vehicle: saline 100 % of control | endpoint: mean survival time, dose: 4.0 mg/kg/injection, schedule: Q01DX010 (ip), vehicle: saline 106 % of control | endpoint: mean survival time, dose: 8.0 mg/kg/injection, schedule: Q01DX010 (ip), vehicle: saline 119 % of control | endpoint: mean survival time, dose: 16.0 mg/kg/injection, schedule: Q01DX010 (ip), vehicle: saline 121 % of control | endpoint: mean survival time, dose: 50.0 mg/kg/injection, schedule: Q01DX001 (ip), vehicle: saline 98 % of control | [1] 101 % of control | [2] 101 % of control

CC(=O)Nc1c(C#N)ncn1C1OC(CO)C(O)C1O (stereo unspecified)
inactive: endpoint: median survival time, dose: 12.5 mg/kg/injection, schedule: Q01DX005 (ip), vehicle: saline 104 % of control | endpoint: median survival time, dose: 25.0 mg/kg/injection, schedule: Q01DX005 (ip), vehicle: saline 103 % of control | endpoint: median survival time, dose: 50.0 mg/kg/injection, schedule: Q01DX005 (ip), vehicle: saline 92 % of control | endpoint: median survival time, dose: 100.0 mg/kg/injection, schedule: Q01DX005 (ip), vehicle: saline 101 % of control | endpoint: median survival time, dose: 200.0 mg/kg/injection, schedule: Q01DX005 (ip), vehicle: saline 100 % of control

COc1ccccc1NC(=O)Oc1cccc(OC(=O)c2ccccc2)c1
inactive: [3] 96 % of control | [4] 103 % of control | [5] 88 % of control

CC(Nc1ccccc1)C(=O)N1CCC(Nc2ccccc2)CC1 (stereo unspecified)
inactive: [3] 94 % of control | [4] 94 % of control | [5] 90 % of control

C(=N\C(/N=C/c1ccccc1)c1ccccc1)/c1ccccc1
inactive: [1] 100 % of control | [2] 103 % of control | [6] 106 % of control

CN1CC(C(=O)NC2CCCCC2)CC2c3cccc4[nH]cc(c34)CC21 (stereo unspecified)
inactive: endpoint: mean survival time, dose: 50.0 mg/kg/injection, schedule: Q04DX003 (ip), vehicle: saline 96 % of control | [7] 92 % of control | [8] 102 % of control

NC(=O)c1csc(NC2OC(CO)C(O)C(O)C2O)n1 (stereo unspecified)
inactive: endpoint: mean survival time, dose: 12.5 mg/kg/injection, schedule: Q01DX005 (ip), vehicle: water 98 % of control | endpoint: mean survival time, dose: 25.0 mg/kg/injection, schedule: Q01DX005 (ip), vehicle: water 96 % of control | endpoint: mean survival time, dose: 50.0 mg/kg/injection, schedule: Q01DX005 (ip), vehicle: water 101 % of control | endpoint: mean survival time, dose: 100.0 mg/kg/injection, schedule: Q01DX005 (ip), vehicle: water 96 % of control | endpoint: mean survival time, dose: 200.0 mg/kg/injection, schedule: Q01DX005 (ip), vehicle: water 98 % of control

O=S(=O)(O)c1ccc2c(N=Nc3ccccc3[As](=O)(O)O)c(O)c(S(=O)(=O)O)cc2c1
inactive: [9] 96 % of control | [10] 104 % of control | [11] 100 % of control | [12] 94 % of control | [13] 98 % of control

NC(=Nc1ccccc1)Nc1ccccc1 (tested in a mixture with another compound)
inactive: [7] 103 % of control | [8] 97 % of control | [14] 100 % of control

CC(C)COC(=O)CN(CC(=O)OCC(C)C)c1ccccc1
inactive: [9] 96 % of control | [10] 110 % of control | [11] 98 % of control | [12] 97 % of control | [15] 103 % of control | [13] 97 % of control

CN1CCN(C(=O)NCCCl)CC1
inactive: endpoint: mean survival time, dose: 5.0 mg/kg/injection, schedule: Q01DX009 (ip), vehicle: saline 107 % of control | endpoint: mean survival time, dose: 5.0 mg/kg/injection, schedule: Q04DX003 (ip), vehicle: saline 93 % of control | endpoint: mean survival time, dose: 10.0 mg/kg/injection, schedule: Q01DX009 (ip), vehicle: saline 94 % of control | endpoint: mean survival time, dose: 10.0 mg/kg/injection, schedule: Q04DX003 (ip), vehicle: saline 92 % of control | endpoint: mean survival time, dose: 20.0 mg/kg/injection, schedule: Q04DX003 (ip), vehicle: saline 92 % of control

CC(C)NCC1CC2c3cccc4[nH]cc(c34)CC2N(C)C1 (stereo unspecified)
inactive: endpoint: median survival time, dose: 25.0 mg/kg/injection, schedule: Q04DX003 (ip), vehicle: saline with Tween-80 100 % of control | endpoint: median survival time, dose: 50.0 mg/kg/injection, schedule: Q04DX003 (ip), vehicle: saline with Tween-80 111 % of control

C[n+]1ccn(C(CC(=O)O)C(=O)O)c1 (stereo unspecified)
inactive: [7] 101 % of control | [8] 103 % of control | [14] 106 % of control

Oc1ccccc1NC(=S)Nc1ccccc1
inactive: [1] 102 % of control | [2] 98 % of control | [6] 100 % of control

COc1cc2cc3c4cc(OC)c(OC)cc4cc[n+]3c(C)c2cc1OC
inactive: [1] 120 % of control | endpoint: mean survival time, dose: 132.0 mg/kg/injection, schedule: Q04DX003 (ip), vehicle: saline sonified 122 % of control | [2] 122 % of control | endpoint: mean survival time, dose: 200.0 mg/kg/injection, schedule: Q04DX003 (ip), vehicle: saline sonified 114 % of control | [8] 122 % of control | endpoint: mean survival time, dose: 300.0 mg/kg/injection, schedule: Q04DX003 (ip), vehicle: saline sonified 123 % of control | [6] 109 % of control | [14] 116 % of control

CCOC(=O)C(=Cc1ccc(O)c(OC)c1)C(=O)OCC
inactive: endpoint: mean survival time, dose: 100.0 mg/kg/injection, schedule: Q01DX001 (ip), vehicle: saline with Tween-80 104 % of control | [9] 93 % of control | endpoint: mean survival time, dose: 200.0 mg/kg/injection, schedule: Q01DX001 (ip), vehicle: saline with Tween-80 101 % of control | [11] 101 % of control | endpoint: mean survival time, dose: 400.0 mg/kg/injection, schedule: Q01DX001 (ip), vehicle: saline with Tween-80 108 % of control | [15] 101 % of control

OCC1CC=CCC1 (stereo unspecified)
inactive: [10] 97 % of control | [12] 90 % of control | [13] 95 % of control

CCCCCCCCCCSC(=N)N
inactive: endpoint: mean survival time, dose: 6.25 mg/kg/injection, schedule: Q01DX001 (ip), vehicle: Klucel (hydroxypropylcellulose) (HPC) 102 % of control | endpoint: mean survival time, dose: 12.5 mg/kg/injection, schedule: Q01DX001 (ip), vehicle: Klucel (hydroxypropylcellulose) (HPC) 112 % of control | endpoint: mean survival time, dose: 25.0 mg/kg/injection, schedule: Q01DX001 (ip), vehicle: Klucel (hydroxypropylcellulose) (HPC) 96 % of control

CC(/C=C/C=C/c1ccccc1)=N\O
inactive: [16] 101 % of control | [17] 110 % of control | [18] 104 % of control

O=S1(=O)CC(Cl)(Br)C1 (tested in a mixture with another compound)
inactive: endpoint: mean survival time, dose: 50.0 mg/kg/injection, schedule: Q01DX009 (ip), vehicle: Klucel (hydroxypropylcellulose) (HPC) 92 % of control | endpoint: mean survival time, dose: 100.0 mg/kg/injection, schedule: Q01DX009 (ip), vehicle: Klucel (hydroxypropylcellulose) (HPC) 107 % of control | endpoint: mean survival time, dose: 200.0 mg/kg/injection, schedule: Q01DX009 (ip), vehicle: Klucel (hydroxypropylcellulose) (HPC) 103 % of control

CCCc1nc2ccccc2c(=O)n1/N=C/c1ccsc1
inactive: endpoint: mean survival time, dose: 100.0 mg/kg/injection, schedule: Q01DX009 (ip), vehicle: saline sonified 100 % of control | endpoint: mean survival time, dose: 200.0 mg/kg/injection, schedule: Q01DX009 (ip), vehicle: saline sonified 102 % of control | endpoint: mean survival time, dose: 400.0 mg/kg/injection, schedule: Q01DX009 (ip), vehicle: saline sonified 93 % of control

N#CC[CH2][Sn]([I])([c]1ccccc1)[c]1ccccc1
inactive: endpoint: mean survival time, dose: 6.25 mg/kg/injection, schedule: Q04DX003 (ip), vehicle: saline with Tween-80 97 % of control | endpoint: mean survival time, dose: 12.5 mg/kg/injection, schedule: Q04DX003 (ip), vehicle: saline with Tween-80 97 % of control

Cc1cc(C)c(C(=O)O)c(C(=O)O)c1
inactive: [16] 106 % of control | [17] 95 % of control | [18] 106 % of control

O=C(NC(Cc1c[nH]c2ccccc12)C(=O)O)c1ccccc1 (stereo unspecified)
inactive: [9] 108 % of control | [10] 109 % of control | [11] 100 % of control | [12] 98 % of control | [15] 104 % of control | [13] 103 % of control | endpoint: mean survival time, dose: 600.0 mg/kg/injection, schedule: Q01DX009 (ip), vehicle: saline with Tween-80 108 % of control

CCN(CC)Cc1ccccc1COC(=O)c1ccccc1
inactive: endpoint: mean survival time, dose: 100.0 mg/kg/injection, schedule: Q04DX002 (ip), vehicle: saline 98 % of control | endpoint: mean survival time, dose: 200.0 mg/kg/injection, schedule: Q04DX002 (ip), vehicle: saline 111 % of control

N#CC(CC(=O)OCc1ccccc1)NC(=O)OCc1ccccc1 (stereo unspecified)
inactive: [12] 86 % of control | [13] 94 % of control
